According to ChEMBL document CHEMBL4483862, “Open-source discovery of chemical leads for next-generation chemoprotective antimalarials” (2018):

System: Plasmodium berghei
Experiment: Luciferase/luciferin-expressing antifolate-resistant parasites were used to infect a culture of HepG2 cells that were pre-incubated with compounds. Infected hepatocytes emit light due to the luciferase reaction. Assay results are presented as the percent inhibition of light emission compared to control. […]
Format: functional
Details: sporozoite; for IC90: read-out: LUCIFERASE INFECTION ASSAY - IC90
[1] = read-out: LUCIFERASE INFECTION ASSAY - IC50

| Structure (SMILES) | IC90 [µM] | IC50 [1] [µM] | further results |
| --- | --- | --- | --- |
| Cc1ccc2nc3ccccc3c(N3CCN(C(=O)c4ccccc4)CC3)c2c1 | 3.42 |  | IC50 (PBLUC_HILL_SLOPE 1, PBLUC_R_SQUARED 0.729, read-out: LUCIFERASE INFECTION ASSAY - IC50): 0.384 µM |
| Clc1sc2ccccc2c1-c1nnc(SCc2nc3ccccn3c2Br)n1-c1ccccc1 | > 10 |  | IC50 (PBLUC_HILL_SLOPE 2.01, PBLUC_R_SQUARED 0.722, read-out: LUCIFERASE INFECTION ASSAY - IC50): 6.1 µM |
| Brc1ccc(-c2noc(CCc3nc4ccccc4[nH]3)n2)cc1 | 7.07 |  | IC50 (HEPG2TOX_HILL_SLOPE 9.24, HEPG2TOX_R_SQUARED 0.722, PBLUC_HILL_SLOPE 3.58, PBLUC_R_SQUARED 0.661, read-out: LUCIFERASE INFECTION ASSAY - IC50): 3.83 µM |
| CCc1ccc(Cl)c(CC)c1NC(=O)Cc1c(C)nn(CC(C)C)c1C | 4.06 |  | IC50 (PBLUC_HILL_SLOPE 11.4, PBLUC_R_SQUARED 0.518, read-out: LUCIFERASE INFECTION ASSAY - IC50): 3.35 µM |
| O=C(CC(NC(=O)c1ccccc1Cl)c1ccccc1)Oc1ccc2c(c1)OCO2 (centres undefined) | > 10 | > 10 |  |
| CCCN(CC(=O)Nc1ccccc1C)C(=O)Cn1nnc2ccccc21 | > 10 | > 10 |  |
| Cc1c2cnn(C)c(=O)c2c(C)n1-c1ccccc1 | > 13 | > 13 |  |
| O=C(c1cnc2ccc3ccccc3c2c1)c1cc(F)ccc1O | > 10 |  | IC50 (HEPG2TOX_HILL_SLOPE 3.61, HEPG2TOX_R_SQUARED 0.979, PBLUC_HILL_SLOPE 3.48, PBLUC_R_SQUARED 0.782, read-out: LUCIFERASE INFECTION ASSAY - IC50): 5.41 µM |
| Cc1cnc(NC(=O)c2ccc3nccnc3c2)s1 | > 10 |  | IC50 (HEPG2TOX_HILL_SLOPE 19.6, HEPG2TOX_R_SQUARED 0.459, read-out: LUCIFERASE INFECTION ASSAY - IC50): > 10 µM |
| Cc1cc(NC(=O)C(C)(C)C)sc1C(=O)Nc1ccccc1O | 0.526 |  |  |
| CN1CCN(c2ccc(-c3cn4c(-c5cccc(OC(F)(F)F)c5)cnc4cn3)cn2)CC1 | > 7.26 |  | IC50 (PBLUC_HILL_SLOPE 2.39, PBLUC_R_SQUARED 0.449, read-out: LUCIFERASE INFECTION ASSAY - IC50): 5.98 µM |
| C/C(=N\NC(=S)Nc1cccc(C(F)(F)F)c1)c1cc(Cl)cc(Cl)c1O | > 7.82 |  | IC50 (PBLUC_HILL_SLOPE 20.9, PBLUC_R_SQUARED 0.295, read-out: LUCIFERASE INFECTION ASSAY - IC50): 7.78 µM |
| CN(C)CCNc1ccnc2c(-c3ccc4ccccc4c3)cnn12 | > 9.96 |  | IC50 (PBLUC_HILL_SLOPE 0.931, PBLUC_R_SQUARED 0.843, read-out: LUCIFERASE INFECTION ASSAY - IC50): 1.06 µM |
| COc1ccc(Nc2nnc(SC(C)C(=O)Nc3sccc3C(N)=O)s2)cc1 (centres undefined) | > 10 | > 10 |  |
| CC(=O)c1sc(SCCS(=O)(=O)c2ccc(Cl)cc2)c2c1CCCC2=O | > 7.69 |  | IC50 (HEPG2TOX_HILL_SLOPE 4.99, HEPG2TOX_R_SQUARED 0.387, PBLUC_HILL_SLOPE 14.8, PBLUC_R_SQUARED 0.11, read-out: LUCIFERASE INFECTION ASSAY - IC50): > 7.69 µM |
| Cc1nc2c(C(N)=O)ncn2c(C)c1CCC(=O)Nc1ccc2oc3ccccc3c2c1 | 9.76 |  | IC50 (PBLUC_HILL_SLOPE 15.8, PBLUC_R_SQUARED 0.091, read-out: LUCIFERASE INFECTION ASSAY - IC50): 9.25 µM |
| CC(C)Cc1ccc(C2=Nn3c(nnc3-c3cccs3)SC2C)cc1 (centres undefined) | > 7.34 | > 7.34 |  |
| Cc1cc(=O)n2nc(-c3ccc(C(C)(C)C)cc3)cc2[nH]1 | 2.42 |  | IC50 (HEPG2TOX_HILL_SLOPE 9.72, HEPG2TOX_R_SQUARED 0.89, PBLUC_HILL_SLOPE 2.59, PBLUC_R_SQUARED 0.666, read-out: LUCIFERASE INFECTION ASSAY - IC50): 1.04 µM |
| CC1CCN(Cc2ccc(CNC(=O)CCn3cncn3)cc2)CC1 | > 10 | > 10 |  |
| CCC(C)NC(=O)c1c(NC(=O)C(C)Oc2ccccc2)nc2ccc(C)cn12 (centres undefined) | > 8.37 |  | IC50 (PBLUC_HILL_SLOPE 12.7, PBLUC_R_SQUARED 0.125, read-out: LUCIFERASE INFECTION ASSAY - IC50): 7.88 µM |
| Cc1nn2c(=O)cc(CSc3ccc(Cl)cc3)[nH]c2c1-c1ccccc1 | 1.17 |  | IC50 (FFLUC_HILL_SLOPE 20.8, FFLUC_R_SQUARED 0.612, HEPG2TOX_HILL_SLOPE 1.69, HEPG2TOX_R_SQUARED 0.683, PBLUC_HILL_SLOPE 14, PBLUC_R_SQUARED 0.557, read-out: LUCIFERASE INFECTION ASSAY - IC50): 0.998 µM |
| O=c1c(Cl)c(Cl)cnn1-c1nc2ccccc2[nH]1 | 1.65 |  | IC50 (HEPG2TOX_HILL_SLOPE 2.11, HEPG2TOX_R_SQUARED 0.958, PBLUC_HILL_SLOPE 7.93, PBLUC_R_SQUARED 0.809, read-out: LUCIFERASE INFECTION ASSAY - IC50): 1.25 µM |
| C(=C(c1nc2ccccc2s1)c1nc2ccccc2s1)c1ccncc1 | 6.3 |  | IC50 (HEPG2TOX_HILL_SLOPE 11.7, HEPG2TOX_R_SQUARED 0.737, PBLUC_HILL_SLOPE 3.59, 2.80, PBLUC_R_SQUARED 0.729, 0.898, read-out: LUCIFERASE INFECTION ASSAY - IC50): 3.12 µM |

| Structure (SMILES) | IC90 [µM] | IC50 [1] [µM] | further results |
| --- | --- | --- | --- |
| COc1ccc(Sc2ccc(NC(=O)C(C)n3ccnc3)cc2Cl)cc1 (centres undefined) | > 10 | > 10 |  |
| CCCCCn1c(SCC(=O)Nc2sccc2C(N)=O)nc2sc3c(c2c1=O)CCC3 | > 10 |  | IC50 (FFLUC_HILL_SLOPE 17.7, FFLUC_R_SQUARED 0.0867, read-out: LUCIFERASE INFECTION ASSAY - IC50): > 10 µM |
| Clc1ccc(-n2nnnc2Sc2ncnc3sc4c(c23)CCC4)cc1 | > 10 |  | IC50 (FFLUC_HILL_SLOPE 0.273, FFLUC_R_SQUARED 0.315, read-out: LUCIFERASE INFECTION ASSAY - IC50): > 10 µM |
| COC(=O)c1scc(S(=O)(=O)c2ccc(Cl)cc2)c1C | > 9.98 | > 9.98 |  |
| CC12CCC(CC1=NNc1nc3ccccc3o1)C2(C)C (centres undefined) | > 10 |  | IC50 (PBLUC_HILL_SLOPE 0.724, PBLUC_R_SQUARED 0.679, read-out: LUCIFERASE INFECTION ASSAY - IC50): 4.33 µM |
| FC(F)(F)Oc1ccc(-c2cnc3ccc(NCc4ccccn4)nn23)cc1 | 1.24 |  | IC50 (HEPG2TOX_HILL_SLOPE 11.3, HEPG2TOX_R_SQUARED 0.834, PBLUC_HILL_SLOPE 11.1, PBLUC_R_SQUARED 0.439, read-out: LUCIFERASE INFECTION ASSAY - IC50): 1.02 µM |
| N#Cc1cc(-c2ccccc2)nnc1NCc1ccc(Cl)cc1 | > 10.3 |  | IC50 (HEPG2TOX_HILL_SLOPE 2, HEPG2TOX_R_SQUARED 0.904, PBLUC_HILL_SLOPE 2.36, PBLUC_R_SQUARED 0.485, read-out: LUCIFERASE INFECTION ASSAY - IC50): 6.28 µM |
| O=C1C(c2ccccc2)=C(c2ccccc2)C(c2ccccc2)=C1c1ccccc1 | > 8.58 |  | IC50 (FFLUC_HILL_SLOPE 1.74, FFLUC_R_SQUARED 0.65, PBLUC_HILL_SLOPE 1.01, PBLUC_R_SQUARED 0.27, read-out: LUCIFERASE INFECTION ASSAY - IC50): 4.04 µM |
| CC(Cc1ccco1)NCc1ccc(-n2ccnc2)cc1 (centres undefined) | > 10 | > 10 |  |
| CC(C(=O)Nc1ccc(S(N)(=O)=O)cc1)N1CCC(CCc2ccccc2)CC1 (centres undefined) | > 10 |  | IC50 (HEPG2TOX_HILL_SLOPE 3.11, HEPG2TOX_R_SQUARED 0.733, PBLUC_HILL_SLOPE 2.39, PBLUC_R_SQUARED 0.628, read-out: LUCIFERASE INFECTION ASSAY - IC50): 5.36 µM |
| NC(=O)c1cccc(-c2ccc3ncc(-c4cccc(O)c4)n3n2)c1 | 7.72 |  | IC50 (HEPG2TOX_HILL_SLOPE 3.39, HEPG2TOX_R_SQUARED 0.986, PBLUC_HILL_SLOPE 6.74, PBLUC_R_SQUARED 0.592, read-out: LUCIFERASE INFECTION ASSAY - IC50): 5.57 µM |
| CC1CN(C(=O)c2ccc(CN3C(=O)CNC3=O)cc2)CCO1 (centres undefined) | > 10 | > 10 |  |
| CCOc1cc(/C=C/c2ccc3cccc(O)c3n2)cc(Br)c1O | 3.78 | 3.28 |  |
| CC(C)n1ncc2c(C(=O)Nc3ccc(N4CCN(C)CC4)nc3)cc(-c3cccs3)nc21 | 8.59 |  | IC50 (HEPG2TOX_HILL_SLOPE 15.5, HEPG2TOX_R_SQUARED 0.177, PBLUC_HILL_SLOPE 20.4, 20.5, PBLUC_R_SQUARED 0.223, 0.421, read-out: LUCIFERASE INFECTION ASSAY - IC50): 7.71 µM |
| COc1ccnc(N2CCN(C(c3ccccc3)c3ccccc3)CC2)c1C#N | > 8.58 |  | IC50 (PBLUC_HILL_SLOPE 3.87, PBLUC_R_SQUARED 0.686, read-out: LUCIFERASE INFECTION ASSAY - IC50): 5.89 µM |
| Cc1cc(C(C)(C)C)cc(C)c1S(=O)(=O)N1CC(=O)Nc2ccccc21 | > 8.86 |  | IC50 (PBLUC_HILL_SLOPE 6.12, PBLUC_R_SQUARED 0.785, read-out: LUCIFERASE INFECTION ASSAY - IC50): 6.84 µM |
| OCCNCCNCc1c(OCc2ccccc2F)ccc2ccccc12 | > 8.96 | > 8.96 |  |
| O=C(Nc1ncccc1O)c1ccc(-c2ccccc2)cc1 | 8 | 4.59 |  |
| CC1(c2cc(F)ccc2F)NC(=O)N(CC(=O)c2cn(CCC#N)c3ccccc23)C1=O (centres undefined) | > 10 | > 10 |  |
| Cc1nn(-c2ccccc2)c(N2CCCCC2)c1/C=N/Nc1ccc(C(F)(F)F)cn1 | > 10 | > 10 |  |
| CC1CCN(C(CNC(=O)N2CCc3sccc3C2)c2cccs2)CC1 (centres undefined) | 9.12 |  | IC50 (PBLUC_HILL_SLOPE 2.26, PBLUC_R_SQUARED 0.56, read-out: LUCIFERASE INFECTION ASSAY - IC50): 3.45 µM |
| Cc1onc(-c2c(F)cccc2Cl)c1C(=O)ON=C1C2CC3CC(C2)CC1C3 | 4.84 |  | IC50 (PBLUC_HILL_SLOPE 4.6, PBLUC_R_SQUARED 0.401, read-out: LUCIFERASE INFECTION ASSAY - IC50): 3 µM |
